{"source": "patent US7671057B2", "about": "“Therapeutic agent for type II diabetes comprising protease-inhibiting compound” (Ono Pharmaceutical Co., Ltd., priority 2004, dated 2010)", "assay_type_in_all_cases": "in vivo, mouse", "key": {"KK-A^y/Ta Jcl mice [1]": {"test_system": "KK-A^y/Ta Jcl mice", "experiment": "Blood-sugar level at satiety, dose-ranging food admixture up to Day 28 (Example 3)", "conditions": "for Blood-sugar level: end of the test (Day 28)", "experimental": "KK-A^y/Ta Jcl Mice (male, 6-weeks aged, the number of cases; 8 animals) were treated through individual administration, in the form of an admixture with a food, of the Test Compound 2 (N-allyl-N-{(2E)-3-[4-({4-[amino(imino)methyl]phenoxy}-carbonyl)phenyl]-2-methyl-2-propenoyl}glycine/dimethanesulfonate) of the present invention at the daily doses of 0.56 mg, 1.68 mg, 5.6 mg and 16.8 mg/100 g-food, respectively, and the Control Compound 1 (5-{4-[2-(5-ethylpyridine-2-yl)-ethoxy]benzyl}-1,3-thiazolidine-2,4-dion; pioglitazone) at the daily doses of 5.6 mg and 16.8 mg/100 g-food, respectively, […], whereby the control group was fed with an ordinary food alone.\nBlood was drawn from the tail vein individually on the day preceding to administration of each compound in the form of an admixture with a food, and on Days 6, 11, 16, 21 and 28 of administration.\nThe blood samples taken from the tail vein on the respective specified days after the administration were subjected to measurement of the blood-sugar level in accordance with the method as described in Example 1, while the plasma glucagon level after the forced oral administration performed on Days 28 was measured in accordance with the ELISA method as described in Example 1. Also, the glycosylated hemoglobin (HbA1c) and GLP-1 levels were determined in accordance with the latex coagulation method and the ELISA method (YK160, GLP-1 EIA Kit, produced by K.K. Yanaihara Kenkyu-sho of Japan), respectively, while the TG level was measured in accordance with the method as described in Example 1. The total pancreatic insulin content after oral administration of each compound was determined by adding 75% ethanol to the isolated pancreas as frozen, followed by homogenization, and collecting the insulin fraction through Sep-Pak (C18; WATER) treatment of the supernatant liquid produced by centrifugation, followed by determination with the ELIZA method."}, "[2]": {"experiment": "Body weight after repeated administration for 14 days (Example 1)", "conditions": "after repeated administration for 14 consecutive days", "experimental": "Following the above-described single administration, the repeated, once-a-day forced oral administration of each compound was performed at the same daily dose for the total period of 14 consecutive days. […] The blood-sugar, TC, TG, IRI and IRG levels and the body weight were expressed as a mean value±standard deviation as calculated for each group of animals. With reference to the significance test between the group treated through administration of the medium and each group treated through administration of the compound, the F test was effected to analyze the data and then, the Student's t-test and Aspin-Welch's t-test were used in cases where the variance between the two groups was determined to be equal and unequal, respectively."}, "KK-A^y/Ta Jcl mice [3]": {"test_system": "KK-A^y/Ta Jcl mice", "experiment": "Weights of pancreas, liver and kidney at autopsy (Example 3)", "experimental": "On Day 28 of administration of each compound in the form of an admixture with a food, furthermore, each animal after blood had been drawn from the tail vein was treated through individual forced oral administration of the Test Compound 2 in the form of the solutions individually consisting of 0.2, 0.6, 2.0 and 6.0 mg/mL-0.5% CMC suspension in each 5 mL/kg portion, as well as the Control Compound 1 in the form of the solutions individually consisting of 2.0 and 6 mg/mL-0.5% CMC suspension in each 5 ml/kg portion, followed by blood drawing 30 min. later and autopsy to thereby measure the weights of the pancreas, liver and kidney, whereby the control group was treated through administration of the 0.5% CMC suspension in the same portion."}, "[4]": {"experiment": "Body weight, administration as admixture with food (Example 2)", "experimental": "KK-A^y/Ta Jcl Mice (male, 6- to 7-weeks aged, the number of cases; 8 animals) were treated through individual administration, in the form of an admixture with a food, of the Test Compound 2 (N-allyl-N-{(2E)-3-[4-({4-[amino(imino)methyl]phenoxy}-carbonyl)phenyl]-2-methyl-2-propenoyl}glycine/dimethane-sulfonate) of the present invention and the Control Compound 1 (5-(4-[2-(5-ethylpyridine-2-yl)ethoxy]benzyl)-1,3-thiazolidine-2,4-dione; pioglitazone) at the daily dose of 16.8 mg/100 g-food for 7 consecutive days, whereby the control group was fed with an ordinary food alone.\nBlood was drawn from the tail vein individually on the day (Day 1) preceding to administration of the Test Compound in the form of an admixture with a food, and on Days 2, 5, 7 and 14 of administration, and the blood samples were subjected to measurement of the blood-sugar level in accordance with the same procedure as described in Example 1, while, at the same time, the animals were weighed."}, "[5]": {"conditions": "autopsy Day 28, Dose 16.8 (g/100 g-food)"}}}
{"compound": "CCc1ccc(CCOc2ccc(CC3SC(=O)NC3=O)cc2)nc1", "note": "(stereo not shown) [Control Compound 1, 5-{4-[2-(5-ethylpyridine-2-yl)ethoxy]benzyl}-1,3-thiazolidine-2,4-dione, reference compound]", "values": [{"measurement": "Blood-sugar lowering effect at the end of the test (Day 28) (in words)", "setting": "KK-A^y/Ta Jcl mice [1]; 16.8 mg/100 g group", "result": "no blood-sugar lowering effect observed"}, {"measurement": "Time-course changes in blood-sugar level at satiety vs Control Group (in words, FIG. 1)", "setting": "KK-A^y/Ta Jcl mice [1]; 16.8 mg/100 g group", "result": "significant drops in blood-sugar level on Days 6 and 11"}, {"measurement": "Blood-sugar level", "setting": "KK-A^y/Ta Jcl mice [1]; Dose 5.6 (g/100 g-food)", "result": "561.6 ± 28.2", "unit": "mg/dL"}, {"measurement": "Blood-sugar level", "setting": "KK-A^y/Ta Jcl mice [1]; Dose 16.8 (g/100 g-food)", "result": "497.0 ± 26.8", "unit": "mg/dL"}, {"measurement": "Effect on mouse body-weight vs control medium group (in words)", "setting": "[2]", "result": "significant elevation in the body weight"}, {"measurement": "Body weight", "setting": "[2]; 30 mg/kg p.o.", "result": "31.7 ± 0.8", "unit": "g"}, {"measurement": "Weight of the liver (in words)", "setting": "KK-A^y/Ta Jcl mice [3]; autopsy Day 28", "result": "raise further the weight of the liver"}, {"measurement": "Weight Kidney", "setting": "KK-A^y/Ta Jcl mice [3]; [5]", "result": "0.49 ± 0.02", "unit": "g"}, {"measurement": "Weight Liver", "setting": "KK-A^y/Ta Jcl mice [3]; [5]", "result": "2.62 ± 0.11", "unit": "g"}, {"measurement": "Weight Pancreas", "setting": "KK-A^y/Ta Jcl mice [3]; [5]", "result": "0.36 ± 0.01", "unit": "g"}, {"measurement": "Body weight Day 2", "setting": "[4]; 16.8 mg/100 g-food admixture", "result": "30.4 ± 0.7", "unit": "g"}, {"measurement": "Body weight Day 5", "setting": "[4]; 16.8 mg/100 g-food admixture", "result": "33.3 ± 0.8", "unit": "g"}, {"measurement": "Body weight Day 7", "setting": "[4]; 16.8 mg/100 g-food admixture", "result": "34.6 ± 0.6", "unit": "g"}, {"measurement": "Body weight Day 14", "setting": "[4]; 16.8 mg/100 g-food admixture", "result": "39.4 ± 1.1", "unit": "g"}, {"measurement": "Body weight Day 1", "setting": "[4]; day preceding administration (baseline), 16.8 mg/100 g-food group", "result": "29.8 ± 0.7", "unit": "g"}, {"measurement": "Effect on body weight (in words)", "setting": "[4]; food admixture 16.8 mg/100 g-food, time course", "result": "tendency to elevate the body weight"}]}
